Data set [1] addresses T1, wild-type AR (Homo sapiens, UniProt P10275).
T1 sequence (P10275 1-920): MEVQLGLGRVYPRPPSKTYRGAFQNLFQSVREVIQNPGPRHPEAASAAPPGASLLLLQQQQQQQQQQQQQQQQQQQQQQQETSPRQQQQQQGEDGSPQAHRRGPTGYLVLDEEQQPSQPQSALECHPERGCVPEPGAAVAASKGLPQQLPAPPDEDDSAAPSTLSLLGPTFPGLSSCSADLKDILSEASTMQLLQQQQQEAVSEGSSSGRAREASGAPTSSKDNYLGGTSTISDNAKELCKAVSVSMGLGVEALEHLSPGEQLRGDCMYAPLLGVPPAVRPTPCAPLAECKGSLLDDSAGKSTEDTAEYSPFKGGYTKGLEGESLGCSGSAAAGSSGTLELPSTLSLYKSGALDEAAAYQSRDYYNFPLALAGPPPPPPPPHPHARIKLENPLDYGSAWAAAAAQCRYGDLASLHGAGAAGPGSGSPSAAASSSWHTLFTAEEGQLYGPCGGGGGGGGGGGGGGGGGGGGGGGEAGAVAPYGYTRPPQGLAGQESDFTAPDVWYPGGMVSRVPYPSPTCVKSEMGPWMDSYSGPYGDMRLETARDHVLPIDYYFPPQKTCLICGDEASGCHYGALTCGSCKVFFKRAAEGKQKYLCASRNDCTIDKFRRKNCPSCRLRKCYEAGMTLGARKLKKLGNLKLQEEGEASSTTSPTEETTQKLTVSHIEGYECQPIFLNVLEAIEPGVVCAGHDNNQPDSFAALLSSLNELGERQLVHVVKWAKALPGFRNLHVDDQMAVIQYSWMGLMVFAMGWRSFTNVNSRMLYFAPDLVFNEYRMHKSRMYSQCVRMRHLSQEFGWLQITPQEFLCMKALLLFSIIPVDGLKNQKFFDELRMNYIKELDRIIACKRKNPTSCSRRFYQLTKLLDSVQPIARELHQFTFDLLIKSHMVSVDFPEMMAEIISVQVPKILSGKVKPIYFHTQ
Briefly: Anti-DHT activity on AR transcription, MMTV-Luc reporter in PC-3 cells transfected with AR. The class given is cell-based. Details: expressed in transfected cells; host or cells: PC-3. The following applies: for suppression of DHT-induced AR transactivation (in words): PC-3, 1 nM DHT, compound at 0.01, 0.1 or 1 μM; for antagonistic effects on DHT-enhanced AR transactivation (in words): compounds related to ADEK, cell line not given. The procedure:
(§1) Cell Culture, Transfection, and Reporter Gene Assay. The human prostate cancer cell lines, LNCaP, PC-3, and DU145, and non-prostate cancer cell line COS-1 were maintained in RPMI or Dulbecco's modified Eagle's medium (DMEM) (Life Technologies) supplemented with 10% fetal bovine serum (FBS). Transfections and luciferase (Luc) assays were performed as previously described (Miyamoto, H., Yeh, S., Wilding, G. & Chang, C. (1998) Proc. Natl. Acad. Sci. USA 95, 7379-7384; Miyamoto, H., Rahman, M., Takatera, H., Kang, H.-Y., Yeh, S., Chang, H.-C., Nishimura, K., Fujimoto, N. & Chang, C. (2002) J. Biol. Chem. 277, 4609-4617). Briefly, cells seeded to reach a density of 50-60% confluence in 12 well tissue culture plates were transfected with 1.5 μg of DNA according to “SuperFect transfection” instructions (Qiagen). After 2-3 h incubation, cells were treated with medium supplemented with charcoal-stripped FBS containing either ethanol or ligands for 24 h. The cells were then harvested and whole cell extracts were used for Luc assay. The Luc activity was determined using a Dual-Luciferase Reporter Assay System (Promega) and luminometer.
(§2) To accomplish these studies, PC-3 cells were transfected with the wild-type AR expression plasmid pSG5-AR and MMTV-Luc. […] The Luc activity was measured relative to that of ethanol treatment (set as 1-fold). Values from the mean±SD of at least three determinations were used. PC-3 cells were transfected with the pSG5-AR and MMTV-Luc. […] Values from the mean±SD of at least three determinations were obtained.

Data set [2] addresses T1, wild-type AR. The data set is described as follows: AR transcriptional activity (androgenic activity), MMTV-Luc reporter in PC-3 cells transfected with wild-type AR. The data set is classed as cell-based. Details: expressed in transfected cells; host or cells: PC-3. The following applies: PC-3, wild-type AR plasmid + MMTV-Luc, compound at 1000 nM, 24 h. The procedure: as §1
Anti-DHT Effect of DHEA Derivatives with Low Androgenic Activity on AR Transcription. Test compounds as antiandrogenic compounds, were characterized by analysis of their ability to induce AR transcriptional activity in the AR-negative PC-3 cell line. The Luc activity was determined in the cell extracts with transient transfection of wild-type AR plasmid and androgen response element-reporter plasmid (mouse mammary tumor virus (MMTV)-Luc). After transfection, the cells were treated with various compounds at 0.1-1,000 nM.
as §2

Another data set concerns PSA. The data set is described as follows: PSA expression in LNCaP cells, Western blot. The data set is classed as cell-based, human. The following applies: 48 h. (In general: Immunoblotting shows a protein as a band on a membrane.)
Another data set has as its system LNCaP cells. Briefly: LNCaP cell growth, cell count by hemocytometer. The data set is classed as cell-based, human. The following applies: 1 nM DHT; 1 μM compound in presence of DHT.

“Also recorded” adds a separate entry of the source.

Procedure for PSA: Western Blot. […] An antibody for -actin (Santa Cruz Biotechnology) was used as the internal control. Blots were quantitated by Collage software (Fotodyne).
The 33-kDa protein was quantitated. β-Actin expression was used as an internal control. […] The mean±SD of three separate experiments was determined. […] Total cell number was counted by hemocytometer. The mean of at least three determinations was determined.

`CC12CCC3(CC1=CC(O)C1C2CCC2(C)C1CCC21OCCO1)OCCO3` (stereo not drawn) [7α-hydroxyandrost-5-ene-3,17-bis ethylene ketal]: the “suppression of DHT-induced AR transactivation (in words)” value (“suppression” for short) at wild-type AR [1] is reported as “less effective; also recorded: little or no capacity”.
As for `C[C@]12CC[C@H]3[C@@H]([C@H](O)CC4C[C@@H](O)CC[C@@]43C)[C@@H]1CC[C@@H]2O` (stereo partly drawn) [3β,7α,17β-trihydroxyandrostane], on wild-type AR [1], the “suppression” value is given as “little or no capacity”.
`CC(=O)O[C@H]1C=C[C@@]2(C)C(=CC[C@H]3[C@@H]4CC[C@H](O)[C@@]4(C)CC[C@@H]32)C1` [3β-acetoxy-17β-hydroxyandrost-1,5-diene]: on wild-type AR [1], the “suppression” value is given as “less effective” and the “antagonistic effects on DHT-enhanced AR transactivation (in words)” value (from here on “antagonistic effects”) is reported as “did not show significant antagonistic effects”.
Turning to `C[C@]12CC[C@H]3[C@@H]([C@H](O)C=C4C[C@@H](O)CC[C@@]43C)[C@@H]1CC[C@@H]2O` [No. 5, 3β,7α,17β-trihydroxyandrost-5-ene], the “induction on AR transcription as compared to mock treatment” value on wild-type AR [2] was “marginal induction”. In addition, the “suppression” value on wild-type AR [1] was “modest suppression”.
With `C[C@]12CCC(=O)C[C@@H]1CC[C@@H]1[C@@H]2CC[C@]2(C)[C@@H](O)CC[C@@H]12` [DHT, dihydrotestosterone, reference compound], the “endogenous PSA expression over mock treatment” value in the data set with PSA (1 nM DHT or 1 μM HF, casodex, ADEK in absence of DHT) is 4.3 fold. In the data set with LNCaP cells, the “effect on LNCaP cell growth, DHT alone or compound with DHT (in words)” value is on record as “significantly increased cell growth”.
Turning to `CC(=O)O[C@H]1CC[C@H]2[C@@H]3CC(=O)C4=CC(=O)CC[C@]4(C)[C@H]3CC[C@]12C` [17β-acetoxyandrost-4-ene-3,6-dione], at wild-type AR [1], the “suppression” value is reported as “little or no capacity”.
Regarding `C[C@]12CC[C@H]3[C@@H]([C@@H](O)C=C4C[C@@H](O)CC[C@@]43C)[C@@H]1CC[C@@H]2O` [3β,7β,17β-trihydroxyandrost-5-ene], on wild-type AR [1], the “suppression” value is reported as “little or no capacity”.
Take `C[C@]12CC[C@H]3[C@@H]([C@@H](O)C=C4CC5(CC[C@@]43C)OCCO5)[C@@H]1CC[C@@H]2O` [7β,17β-dihydroxyandrost-5-ene-3-ethylene ketal]: the “suppression” value at wild-type AR [1] is on record as “less effective”.
On to `COC(=O)[C@H]1CC[C@@]2(C)C(=CC(=O)[C@@H]3[C@@H]2CC[C@]2(C)C(=O)[C@H](C(=O)OC)C[C@@H]32)C1` [3β,16α-bis-carbomethoxyandrost-5-ene-7,17-dione], for which the “suppression” value at wild-type AR [1] was “less effective”.
On to `C[C@]12CC[C@H]3[C@@H](CCC4=C[C@@H](O)CC[C@@]43C)[C@@H]1CC[C@@H]2O` [3β,17β-dihydroxyandrost-4-ene], for which the “suppression” value at wild-type AR [1] is on record as “less effective”.
In turn, `C[C@]12C=C[C@H](O)CC1=CC[C@@H]1[C@@H]2CC[C@@]2(C)[C@H]1CCC21OCCO1` registered a melting point of 138 to 140 °C.
As for `C[C@]12C=CC(=O)C=C1CC[C@@H]1[C@@H]2CC[C@]2(C)C(=O)CC[C@@H]12` [androst-1,4-diene-3,17-dione], at wild-type AR [1], the “suppression” value is reported as “less effective” and the “antagonistic effects” value was “did not show significant antagonistic effects”.
As for `C[C@]12C=C[C@H](O)CC1=CC[C@@H]1[C@@H]2CC[C@]2(C)C(=O)CC[C@@H]12` [No. 16, 3β-hydroxyandrost-1,5-diene-17-one], at wild-type AR [2], the “induction on AR transcription as compared to mock treatment” value was “marginal induction”. At wild-type AR [1], the “suppression” value is on record as “modest suppression” and the “antagonistic effects” value was “did not show significant antagonistic effects”.
In the same order, the values of `CC(=O)O[C@H]1C=C[C@@]2(C)C(=CC[C@@H]3[C@@H]2CC[C@]2(C)C(=O)CC[C@@H]32)C1` [No. 14, 3β-acetoxyandrost-1,5-diene-17-one] are “marginal induction”, “modest suppression” and “did not show significant antagonistic effects”.
Take `C[C@]12CC[C@H](O)C[C@@H]1CC[C@@H]1[C@@H]2CC[C@]2(C)C(=O)[C@H](Br)C[C@@H]12` [16α-bromoepiandrosterone]: the “suppression” value on wild-type AR [1] is recorded as “little or no capacity”.
In the case of `CC(O)(CS(=O)(=O)c1ccc(F)cc1)C(=O)Nc1ccc(C#N)c(C(F)(F)F)c1` (stereo not shown) [casodex, bicalutamide], in the data set on PSA (1 μM compound + 1 nM DHT), the “DHT-induced PSA expression decreased to (DHT = 100%)” value is listed as 58%.
For `CCC(=O)O[C@H]1CC[C@H]2[C@@H]3C(=O)C=C4CC5(CC[C@]4(C)[C@H]3CC[C@]12C)OCCO5` [17β-propionony-7-oxoandrost-5-en-3-ethylene ketal], the “suppression” value on wild-type AR [1] is recorded as “little or no capacity”.

As usually defined, the melting point is the temperature of the solid-liquid transition.

For the origin of these results see patent US7638509B2, “Diene compounds and formulations” (priority 2003, dated 2009).
